# Data reported in US12168662B1, “Pyrido[4′,3′:4,5]pyrrolo[2,3-c][2,7]naphthyridines compounds as CK2 inhibitors” (KING FAISAL UNIVERSITY, priority 2023, dated 2024).
# What was measured:
# [1] = system: MIAPaCa-2 (pancreas); experiment: In vitro cytotoxic activity assay (MTT); format: cell-based; conditions: Homo sapiens, MIA PaCa-2; MIAPaCa-2 cells, exposed for 96 hours, 50% inhibition of cell proliferation; read-out: Cytotoxicity activity IC50, MIAPaCa-2 (pancreas)
# Experimental: (§1) Compounds 1-16 were screened for their in vitro cytotoxic activity utilizing a 3-(4,5-dimethyl-thiazol-2-yl)-2,5-diphenyltetrazolium bromide (MTT) assay against selected cancer human cell lines consisting of PC3 (prostate), HCT116 (colon), A375 (melanoma), H1299 (lung), MIAPaCa-2 (pancreas), HL60 (leukemia), MCF7 (breast), MDA-MB-231 (breast) (T. Mosmann, J. Immunol. Meth., 1983, 65, 55-63). The cells were cultured at 37° C. in RMPI1640 medium supplemented with 10% fetal bovine serum, 50 IU/mL penicillin, and 50 μg/mL streptomycin in a 5% CO2 incubator. All cells were sub-cultured 3 times/week by trypsinisation. Viable cells were seeded and allowed to adhere for 12 hours before a test drug was added in 96-well plates at an initial density of 1.0×10^5 cells/mL. Tumor cell lines were separately exposed to various concentrations of the tested compounds followed by incubation at a temperature of 37° C. during 96 hours inside a medium of fresh RMPI 1640. Cells were subsequently incubated at 37° C. using MTT at 0.5 mg/mL during 4 hours. After removal of supernatant, formazan crystals were dissolved in isopropanol and the optical density was measured at 570 nm. CX-4945 was used as a positive control.
# [2] = system: A375 (melanoma); experiment: In vitro cytotoxic activity assay (MTT); format: cell-based; conditions: Homo sapiens, A-375; A375 cells, exposed for 96 hours, 50% inhibition of cell proliferation; read-out: Cytotoxicity activity IC50, A375 (melanoma)
# Experimental: as §1
# [3] = system: HL60 (leukemia); experiment: In vitro cytotoxic activity assay (MTT); format: cell-based; conditions: Homo sapiens, HL-60; HL60 cells, exposed for 96 hours, 50% inhibition of cell proliferation; read-out: Cytotoxicity activity IC50, HL60 (leukemia)
# Experimental: as §1
# [4] = system: MCF7 (breast); experiment: In vitro cytotoxic activity assay (MTT); format: cell-based; conditions: Homo sapiens; MCF7 cells, exposed for 96 hours, 50% inhibition of cell proliferation; read-out: Cytotoxicity activity IC50, MCF7 (breast)
# Experimental: as §1
# [5] = system: PC3 (prostate); experiment: In vitro cytotoxic activity assay (MTT); format: cell-based; conditions: Homo sapiens, PC-3; PC3 cells, exposed for 96 hours, 50% inhibition of cell proliferation; read-out: Cytotoxicity activity IC50, PC3 (prostate)
# Experimental: as §1
# [6] = system: HCT116 (colon); experiment: In vitro cytotoxic activity assay (MTT); format: cell-based; conditions: Homo sapiens, HCT-116; HCT116 cells, exposed for 96 hours, 50% inhibition of cell proliferation; read-out: Cytotoxicity activity IC50, HCT116 (colon)
# Experimental: as §1
# [7] = system: MDA-MB-231 (breast); experiment: In vitro cytotoxic activity assay (MTT); format: cell-based; conditions: Homo sapiens; MDA-MB-231 cells, exposed for 96 hours, 50% inhibition of cell proliferation; read-out: Cytotoxicity activity IC50, MDA-MB-231 (breast)
# Experimental: as §1
# [8] = system: H1299 (lung); experiment: In vitro cytotoxic activity assay (MTT); format: cell-based; conditions: Homo sapiens, NCI-H1299; H1299 cells, exposed for 96 hours, 50% inhibition of cell proliferation; read-out: Cytotoxicity activity IC50, H1299 (lung)
# Experimental: as §1
# [9] = target: T1, recombinant human CK2 (RRββ-holoenzyme) (Homo sapiens, UniProt P68400); experiment: CK2 Kinase Assay (radiometric, [γ-33P] ATP); format: biochemical; conditions: final ATP concentration 15 μM, 10 min at 30° C., eight concentrations; read-out: protein kinase CK2 activity IC50
# T1 construct: purchased Millipore
# Experimental: CK2 Kinase Assay was conducted using the protocol as described in Pierre F. et al; J. Med. Chem. 2011, 54, 635-654. The tested compounds in aqueous solution were added at a volume of 10 μL to a reaction mixture comprising 10 μL of assay dilution buffer (ADB; 20 mM MOPS, pH 7.2, 25 mM β-glycerol phosphate, 5 mM EGTA, 1 mM sodium orthovanadate, and 1 mM dithiothreitol), 10 μL of substrate peptide (RRRDDDSDDD, dissolved in ADB at a concentration of 1 mM), 10 μL of recombinant human CK2 (RRββ-holoenzyme, 25 ng dissolved in ADB; Millipore). Reactions were initiated by the addition of 10 μL of ATP solution (90% 75 mMMgC2, 75 μM ATP (final ATP concentration: 15 μM) dissolved in ADB; 10% [γ-33P] ATP (stock 1 mCi/100 μL; 3000 Ci/mmol (Perkin-Elmer) and maintained for 10 min at 30° C. The reactions were quenched with 100 μL of 0.75% phosphoric acid and then transferred to and filtered through a phosphor cellulose filter plate (Millipore). After washing each well five times with 0.75% phosphoric acid, the plate was dried under vacuum for 5 min and, following the addition of 15 μL of scintillation fluid to each well, the residual radioactivity was measured using a Wallac luminescence counter. The IC50 values were derived from eight concentrations of test inhibitors.
# T1 sequence (P68400 whole entry): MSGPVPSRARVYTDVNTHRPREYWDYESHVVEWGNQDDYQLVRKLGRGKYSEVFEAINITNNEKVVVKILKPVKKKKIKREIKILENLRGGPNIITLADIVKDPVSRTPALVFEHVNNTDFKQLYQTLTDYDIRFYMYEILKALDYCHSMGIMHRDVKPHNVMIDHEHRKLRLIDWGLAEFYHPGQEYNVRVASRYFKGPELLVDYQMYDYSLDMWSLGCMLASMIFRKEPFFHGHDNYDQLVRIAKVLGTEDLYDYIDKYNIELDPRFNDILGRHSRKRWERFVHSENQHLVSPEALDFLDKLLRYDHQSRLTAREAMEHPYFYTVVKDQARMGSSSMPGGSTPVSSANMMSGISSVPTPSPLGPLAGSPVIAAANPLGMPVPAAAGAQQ
# T1 sequence (P67870 whole entry partner): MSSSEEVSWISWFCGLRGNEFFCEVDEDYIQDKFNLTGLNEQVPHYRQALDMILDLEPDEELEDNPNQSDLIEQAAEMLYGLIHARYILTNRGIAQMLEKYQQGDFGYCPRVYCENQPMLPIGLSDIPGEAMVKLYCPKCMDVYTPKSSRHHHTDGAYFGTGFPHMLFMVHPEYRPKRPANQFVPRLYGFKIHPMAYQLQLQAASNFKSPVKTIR
compound,measurement,setting,value
"Clc1cccc(Nc2nc3[nH]c4cnccc4c3c3ccncc23)c1 [Compound 1, N-(3-chlorophenyl)-7H-pyrido[4′,3′:4,5]pyrrolo[2,3-c][2,7]naphthyridin-5-amine]",IC50,[1],2400 nM
same,IC50,[2],4700 nM
same,IC50,[3],3300 nM
same,IC50,[4],5200 nM
same,IC50,[5],1300 nM
same,IC50,[6],1500 nM
same,IC50,[7],4400 nM
same,IC50,[8],1800 nM
same,IC50,[9],334 nM
